In US10632054B2, “Method for hair frizz reduction” (The Procter & Gamble Company, priority 2015, dated 2020):

Experiments:
[1] = Expert rating of hair switches for frizz, clean feel and greasy feel; conditions: 1% in leave-on composition
Method: Additional leave-on treatment compositions are prepared (Tables 1 and 2) according to the procedure described above, which are used to treat hair switches using the procedure described above (amount of 0.10 g of composition per g of hair). The switch is kept at high humidity (above 85%) for 2 hours. Then, ten experts are asked to rate each hair switch in terms of frizz, clean feel, and greasy feel, based on a 5 point scale, 5 being the highest and 1 being the lowest rating. Acceptable values are:
For frizz, less than 2 (lower number corresponds to less frizz);
For no greasy feel less than 3, (lower number corresponds to less greasy feel), and
For clean feel greater than 3 (higher number corresponds to cleaner feel).

[2] = Leave-on treatment, % water reduction by DVS in damaged hair; conditions: 10% propylene glycol
Method: An amount of 25-30 mg of hair with length of approximately 1 cm is weighed and hold for equilibration at 0% RH for 16 hours. After the 16-hour period, the RH is increased to 10% and maintained at this level for 6 hours. Then, the RH is increased by 10% after every 6 hours interval until it reaches 90% RH. The % water reduction is calculated as follows:
A=Amount of water absorbed by the hair treated with composition containing the Moisture Control Material

[3] = Soaking treatment, moisture uptake by DVS; conditions: pH 4.2, 40 deg C., at 90% RH
Method: The Moisture Control Material is added into a 50:50 ethanol:water solvent at a concentration of 2% w/w and mixed until completely dissolved. The solution pH is adjusted with sodium hydroxide (50% w/w) to a final pH of 4.2. The soaking solution is kept at 40 deg C. for 2 hrs. until a uniform composition is obtained.
One hair switch of natural virgin brown hair is placed in 200 ml of this solution for 2 hours in an oven set at 40° C. After the 2-hour period, the hair is removed, air dried and then tested for moisture uptake using DVS. For the control experiment, a natural brown virgin hair switch of the same weight is placed in a 50:50 ethanol:water solvent and treated under identical conditions.
The % water reduction is calculated as follows: […]
Hair soaked in active solution of pH 4.2 for different interval of time from 10 min to 2 hrs at 40 deg C. Hair Switches were air dried and prepared for % water reduction measurement using DVS vs. control (no active).

SMILES | Hair switch rating result in words (frizz, clean feel, greasy feel) [1] | further results
CCCCCCCCC(CO)CCCCCC (stereo not shown) [2-Hexyl-1-decanol] | provide frizz protection with clean feel and without greasy feel negative | 
O=C(O)c1ccc(O)cc1O [2,4-Dihydroxybenzoic acid] | provide frizz protection with clean feel and without greasy feel negative | 
O=C(O)c1ccccc1O [Salicylic acid] | provide frizz protection with clean feel and without greasy feel negative | 
O=C(OCCO)c1ccccc1O [2-Hydroxyethyl salicylate] | provide frizz protection with clean feel and without greasy feel negative | 
O=C(O)c1cc(Cl)ccc1O [5-Chlorosalicylic acid] | provide frizz protection with clean feel and without greasy feel negative | increase in % water reduction as measured by DVS versus without propylene glycol [2]: ~4 times; % water reduction vs. control ([3]; 10 min soaking): 9.6%; % water reduction vs. control ([3]; 20 mins soaking): 14.8%; % water reduction vs. control ([3]; 30 mins soaking): 19%; % water reduction vs. control ([3]; 1 hr soaking): 26%; % water reduction vs. control ([3]; 2 hr soaking): 30%
CC(C)CCCCCCCCCCCCCCCOC(=O)CCCCCCCCCCCCCCC(C)C [Isostearyl isostearate] | provide frizz protection with clean feel and without greasy feel negative | 
O=S(=O)(O)c1ccc(O)cc1 [4-Hydroxybenzenesulphonic acid] | provide frizz protection with clean feel and without greasy feel negative | 
